Reference: PubChem BioAssay (NCI)
Where “and” joins values, the source holds several entries; their conditions need not be identical. Equal entries are not always repeated.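 A five-concentration, 48-hour dose response in 96-well plates underlies each endpoint, interpolated linearly between surrounding concentrations. Here, GI50 denotes the concentration required for 50% inhibition of growth. TGI: total growth inhibition.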

Experiments:
Assay in all cases: NCI-60 cell line screen, 48 h
M14 melanoma = test system: M14 melanoma
NCI-H522 lung = test system: NCI-H522 lung
RXF 393 renal = test system: RXF 393 renal
SK-MEL-28 melanoma = test system: SK-MEL-28 melanoma
HCT-116 colon = test system: HCT-116 colon
UACC-62 melanoma = test system: UACC-62 melanoma
SN12C renal = test system: SN12C renal
KM12 colon = test system: KM12 colon
SK-MEL-2 melanoma = test system: SK-MEL-2 melanoma
LOX IMVI melanoma = test system: LOX IMVI melanoma

SMILES | GI50 (M14 melanoma) | TGI (M14 melanoma) | TGI (NCI-H522 lung) | GI50 (RXF 393 renal) | TGI (RXF 393 renal) | TGI (SK-MEL-28 melanoma) | GI50 (HCT-116 colon) | TGI (HCT-116 colon) | GI50 (UACC-62 melanoma) | TGI (UACC-62 melanoma) | GI50 (SN12C renal) | TGI (SN12C renal) | GI50 (KM12 colon) | TGI (KM12 colon) | GI50 (SK-MEL-2 melanoma) | TGI (SK-MEL-2 melanoma) | GI50 (LOX IMVI melanoma) | TGI (LOX IMVI melanoma) | GI50 (NCI-H522 lung) | GI50 (SK-MEL-28 melanoma)
COc1ccc(/C(=N\NC(=S)NN)C(c2ccc(OC)cc2)C2C(=O)Oc3ccccc32)cc1 (configuration not stated) | > 100 µM | > 100 µM | > 100 µM | > 100 µM | > 100 µM | > 100 µM | > 100 µM | > 100 µM | > 100 µM | > 100 µM | > 100 µM | > 100 µM | > 100 µM | > 100 µM | > 100 µM | > 100 µM | – | – | – | –
COc1ccc(OC)c(Cn2cc3c(c2-c2ccccc2)CCc2cnoc2-3)c1 | 4.82 µM | > 100 µM | 6.25 µM | 6.12 µM | > 100 µM | > 100 µM | 4.04 µM | > 100 µM | 3.8 µM | > 100 µM | 23.8 µM | > 100 µM | 3.61 µM | > 100 µM | 3.71 µM | 59.2 µM | 4920 nM | > 100 µM | 1740 nM | 6800 nM
O=C(N/N=C/c1cccc(F)c1)c1ccncc1 | – | > 100 µM | – | – | > 100 µM | > 100 µM | – | > 100 µM | – | – | – | > 100 µM | – | > 100 µM | – | > 100 µM | – | > 100 µM | – | –
C=C1C(=O)O[C@H]2[C@H]1CC/C(COC(=O)NCC(C)c1ccc(CC(C)C)cc1)=C\CC[C@@]1(C)O[C@@H]21 (some centres not stated) | – | – | 1.77 µM | 0.559 µM | 1.17 µM | 5.52 µM | 0.641 µM | 1.32 µM | 0.751 µM | 2.35 µM | 1.06 µM | 4.14 µM | 3.53 µM | 8.24 µM | 3.86 µM | 8.48 µM | 506 nM | 1 µM | 661 nM | 1600 nM
CC(=O)/C(=C/c1ccccc1F)C(=O)c1ccccc1 | – | > 100 µM | > 100 µM | – | 46 µM | > 100 µM | – | > 100 µM | – | > 100 µM | – | > 100 µM | – | > 100 µM | – | 93.8 µM | – | 40.8 µM | – | –
CSC(=S)N/N=C/c1nccc2ccccc12 | – | 4.87 µM | 1.63 µM | – | 6.01 µM | > 79.8 µM | – | > 100 µM | – | 6.08 µM | – | 12.7 µM | – | 15.6 µM | – | 5.89 µM | – | 13.1 µM | – | –
COc1cc2c(cc1OC)C(C(=O)c1cccc(OC)c1OC)C(=O)N(C)CC2 (configuration not stated) | – | > 100 µM | > 100 µM | – | > 100 µM | > 100 µM | – | > 100 µM | – | > 100 µM | – | > 100 µM | – | > 100 µM | – | > 100 µM | – | > 100 µM | – | –
Cc1c2ccccc2cc2ccc3oc([N+](=O)[O-])cc3c12 | – | > 100 µM | – | – | > 100 µM | – | – | > 100 µM | – | > 100 µM | – | > 100 µM | – | > 100 µM | – | > 100 µM | – | > 100 µM | – | –
Cn1cc(C2=C(c3cn(C4CCN(Cc5ccccn5)CC4)c4ccccc34)C(=O)NC2=O)c2ccccc21 | 4.61 µM | > 100 µM | > 100 µM | 2.59 µM | 25.3 µM | > 100 µM | 3.03 µM | > 100 µM | 5.12 µM | > 100 µM | > 100 µM | > 100 µM | 3.85 µM | > 100 µM | 3.08 µM | 47.5 µM | 4900 nM | > 100 µM | 4190 nM | 6070 nM
CC(C)(Oc1ccc(/C=C/C(=O)c2ccc(Cl)cc2)cc1)C(=O)Nc1c(Cl)cccc1Cl | – | 36.7 µM | – | – | 36.9 µM | 30.3 µM | – | 18.5 µM | – | 38 µM | – | 34.8 µM | – | 25 µM | – | > 100 µM | – | 31 µM | – | –
O=C(O)c1ccc(C2C(=O)N[C@@H]3CCC[C@H]23)cc1 (some centres not stated) | – | > 100 µM | > 100 µM | – | > 100 µM | > 100 µM | – | > 100 µM | – | > 100 µM | – | – | – | > 100 µM | – | > 100 µM | – | > 100 µM | – | –
CC(=O)N1CCC2(c3ccccc3N(C(C)=O)C2c2ccc(O)cc2)C1C(=O)O (configuration not stated) | – | > 100 µM | > 100 µM | – | > 100 µM | > 100 µM | – | > 100 µM | – | > 100 µM | – | > 100 µM | – | > 100 µM | – | > 100 µM | – | > 100 µM | – | –
CCN(C(=O)/C=C/c1ccco1)c1ccccc1 | – | > 100 µM | > 100 µM | – | > 100 µM | > 100 µM | – | > 100 µM | – | > 100 µM | – | > 100 µM | – | > 100 µM | – | > 100 µM | – | > 100 µM | – | –
CSC1=Nc2ccccc2N=C(c2ccc(Cl)cc2)C1 | – | > 100 µM | > 100 µM | – | 79.2 µM | > 100 µM | – | > 100 µM | – | > 100 µM | – | > 100 µM | – | > 100 µM | – | 51.4 µM | – | 72.1 µM | – | –
C[N+](C)(C)CC1CCCCC1O (configuration not stated) | – | > 100 µM | > 100 µM | – | > 100 µM | > 100 µM | – | > 100 µM | – | > 100 µM | – | > 100 µM | – | – | – | > 100 µM | – | > 100 µM | – | –
NC(=S)NN/C=C(\C=Nc1ccccc1)[N+](=O)[O-] | – | > 100 µM | > 100 µM | – | > 100 µM | > 100 µM | – | > 100 µM | – | > 100 µM | – | > 100 µM | – | – | – | > 100 µM | – | > 100 µM | – | –
COc1cnc2c(c1)C(=O)c1c-2n(CCCN2CCN(C)CC2)c(=O)c2cc([N+](=O)[O-])ccc12 | 0.131 µM | 0.37 µM | 2.39 µM | 11.4 µM | 30.4 µM | – | – | – | – | – | – | – | 2.11 µM | 7.8 µM | 11 µM | 23.2 µM | 180 nM | 0.396 µM | 479 nM | –
CC(C)(C)c1cc(C=C(C#N)C#N)cc(C(C)(C)C)c1O | 0.533 µM | 12.1 µM and 10.7 µM | 2.86 µM and 1.61 µM | 0.482 µM | 14.3 µM and 10.5 µM | 43.6 µM | – | 1.03 µM and 3.81 µM | – | 8.29 µM and 19.3 µM | 0.513 µM | 4.6 µM | – | – | – | 1.39 µM | 375 nM | 3.92 µM and 10.8 µM | 219 nM | 778 nM
O=[N+]([O-])c1ccc(-c2ccc(-c3csc(Nc4ccccc4)n3)o2)cc1 | – | 38 µM | 32 µM | – | – | 32.2 µM | – | 47 µM | – | 37.2 µM | – | 33 µM | – | 38.3 µM | – | 36.4 µM | – | 34.8 µM | – | –
COc1ccc(C(=O)c2ccc([As]=O)cc2)cc1 (configuration not stated) | 0.0629 µM | 0.218 µM | 0.254 µM | 0.059 µM | 0.188 µM | – | 0.0387 µM | 0.154 µM | – | – | 0.0418 µM | 0.199 µM | 0.0801 µM | 0.219 µM | 0.173 µM | 0.373 µM | 23.7 nM | 0.075 µM | 90.2 nM | –
COC(=O)C1(O)CC(=O)CCC1c1ccc(OC)cc1 (configuration not stated) | – | > 100 µM | > 100 µM | – | – | > 100 µM | – | > 100 µM | – | > 100 µM | – | > 100 µM | – | > 100 µM | – | > 100 µM | – | > 100 µM | – | –
COC(=O)C1(C(=O)OC)CC(=O)c2cc3c(cc2-c2c(cc(OC)c(OC)c2OC)C1)OCO3 | – | – | > 211 µM | – | > 211 µM | > 211 µM | – | > 211 µM | – | > 211 µM | – | > 211 µM | – | > 211 µM | – | > 211 µM | – | > 211 µM | – | –
Oc1ccccc1-c1nn(CNc2ccccc2Cl)c(=S)o1 | > 100 µM | > 100 µM | > 100 µM | > 100 µM | > 100 µM | – | 29.8 µM | > 100 µM | 71.7 µM | > 100 µM | 78.2 µM | > 100 µM | > 100 µM | > 100 µM | > 100 µM | > 100 µM | 18900 nM | 35.2 µM | > 100000 nM | –
O=c1cc(/C=C/c2ccccc2)[nH]c2cc3c(cc12)OCO3 | – | 17.1 µM | – | 4.27 µM | 22 µM | 34.9 µM | – | 13.4 µM | – | 10.1 µM | – | 23.9 µM | – | 17.7 µM | – | 9.11 µM | – | – | – | –
c1ccc2[nH]c(-c3ccc(Nc4nc(N5CCCCC5)nc(N5CCOCC5)n4)cc3)nc2c1 | 2.05 µM | 4.72 µM | 6.22 µM | 0.808 µM | 3.28 µM | 4.02 µM | 1.91 µM | 3.87 µM | – | – | 5.4 µM | 53.2 µM | 2.85 µM | 9.54 µM | 2.34 µM | 5.36 µM | 1750 nM | 3.58 µM | 2360 nM | 1800 nM
CC(=O)OCC1OC(N2C(=O)C(=O)c3ccccc32)C(OC(C)=O)C(OC(C)=O)C1OC(C)=O (configuration not stated) | – | > 100 µM | > 100 µM | – | > 100 µM | > 100 µM | – | – | – | > 100 µM | – | > 100 µM | – | > 100 µM | – | > 100 µM | – | > 100 µM | – | –
O=C(Nc1ccc(Cl)c(Cl)c1)NS(=O)(=O)c1cnccc1Oc1ccc(F)cc1 | 5.24 µM | > 100 µM | 10.4 µM | 3.8 µM | > 100 µM | – | 3.07 µM | 12.3 µM | 4.16 µM | > 100 µM | 3.38 µM | 15.4 µM | 3.75 µM | 16.7 µM | 4.71 µM | > 100 µM | 3240 nM | 53.1 µM | 2800 nM | –
CCCCN(CCCC)C(=O)/C(CC(=O)c1cccc2ccccc12)=N\NC(=O)c1cc2ccccc2cc1O | – | 69.8 µM | – | – | 63 µM | > 100 µM | – | 28 µM | – | 23.3 µM | – | 52.6 µM | – | > 100 µM | – | 45.7 µM | – | 35.9 µM | – | –
